Assay results published in patent US6528489B1, “Mycotoxin derivatives as antimitotic agents” (Ergon Pharmaceuticals LLC, priority 1999, dated 2003).

Assays:
bFGF-stimulated HUVECs = test: bFGF-induced proliferation of human endothelial cells (HUVEC proliferation assay); format: cell-based; details: 20 ng/ml bFGF, 48 hours, read-out: IC50 of Antiproliferative Effect
Excerpt: Proliferation assays familiar to those skilled in the art using human umbilical vein endothelial cells (HUVECs) were employed in order to determine the effect of various antibiotics on the growth of bFGF-stimulated HUVECs.
The materials for this experiments included endothelial cells (HUVECS) and media for their proliferation (Media 200, fetal bovine serum (FBS), gelatin, bFGF) (Paragon Bioservices, Baltimore, Md.), and Cell Titer 96 for detection of cell proliferation (Paragon Bioservices, Baltimore, Md.). Antibiotics aurovertin B, citreoviridin, oligomycin A, oligomycin B, oligomycin C, and efrapeptin D were all obtained from Sigma Chemical Company (St. Louis, Mo.).
HUVECs were routinely cultured to confluency in Media 200 containing 10% FBS. The cells were then trypsinized and plated in a 96-well plate pre-coated with 1% gelatin at 5000 cells per well per 100 μL Media 200 containing 2% FBS. The cells were allowed to adhere for 24 hours. Subsequently, the media were aspirated and fresh Media 200 containing 0.5% FBS were added to the wells. Addition of various concentrations of antibiotics in the presence and absence of 20 ng/ml bFGF followed. The assay plates were incubated at 37° C., 5% CO2 for 48 hours. At the end of the incubation period, cell proliferation was determined using cell counting (Cell Counter Model Z1, Coulter Incorporation, Miami, Fla.) or spectrophotometry. In the later case, the assay plates were incubated with Cell Titer 96 for 2 hours and the absorbance was recorded at 490 nm.

VEGF-stimulated HUVECs = test: VEGF-induced migration of human endothelial cells (modified Boyden chamber); format: cell-based; details: 5 ng/ml VEGF, six hours
Excerpt: A migration assay familiar to those skilled in the art using vascular endothelial growth factor (VEGF)-stimulated HUVECs was employed to determine the effect of aurovertin B on endothelial cell migration.
The endothelial cells were routinely cultured as previously described.
Modified Boyden chambers in a 48-well format consisting of upper and lower wells separated by an 8-microns pore polycarbonate filter coated with collagen were used to study VEGF-induced migration of HUVECs (Paragon Bioservices, Baltimore, Md.). The endothelial cells were added to the lower wells and the migrating factor (5 ng/ml VEGF) was added to the upper wells. HUVECs were allowed to migrate from the lower to the upper wells for six hours at 37° C., 5% CO2. At the end of the incubation period, the filters were removed and washed gently. The cells on the filters were then fixed, stained with hematoxylin, and counted with a light microscope. The values obtained represent the mean of ten fields.

[1] = test system: murine B16F10 melanoma tumors; test: Growth of murine B16F10 melanoma tumors in C57 mice; format: in vivo; details: 2 mg/kg i.p. every day for 9 days
Method: The effect of aurovertin B and efrapeptin D on the growth of murine B16F10 melanoma tumors (ATCC, Rockville, Md.) was investigated. Groups of four C57 mice (The Jackson Laboratory, BarHarbor, Me.) were injected subcutaneously with 5×10^4 B16F10 cells (The Jackson Laboratory, BarHarbor, Me.). The mice were subsequently treated i.p. with 2 mg/kg aurovertin B, 0.4 mg/kg efrapeptin D, or vehicle control. The treatment was initiated three days after the tumor inoculation and continued every day for 9 days. The tumor growth was recorded at the end of the experiment.

| SMILES | IC50 (bFGF-stimulated HUVECs) [µM] | inhibition of VEGF-induced migration of HUVECs (in words) (VEGF-stimulated HUVECs) | mice that exhibited measurable, growing tumors at the end of the treatment [1] [%] | Number of mice that developed measurable tumors/Number of mice injected with tumor cells ([1]; started three days after tumor inoculation) |
| --- | --- | --- | --- | --- |
| CC[C@@H]1/C=C/C=C/C[C@H](C)[C@H](O)[C@](C)(O)C(=O)[C@H](C)[C@@H](O)[C@H](C)C(=O)[C@H](C)[C@@H](O)[C@H](C)/C=C/C(=O)O[C@H]2[C@@H](C)[C@@H](CC1)O[C@@]1(CC[C@@H](C)[C@@H](C[C@H](C)O)O1)[C@@H]2C [Oligomycin A, oligomycin A] | 5 | – | – | – |
| CC[C@@H]1C=CC=CC[C@H](C)[C@@H](O)[C@@H](C)C(=O)[C@H](C)[C@@H](O)[C@H](C)C(=O)[C@H](C)[C@@H](O)[C@H](C)C=CC(=O)O[C@H]2[C@@H](C)[C@@H](CC1)O[C@@]1(CC[C@@H](C)[C@@H](C[C@H](C)O)O1)[C@@H]2C [Oligomycin C, oligomycin C] | 5 | – | – | – |
| CC[C@H]1O[C@]2(C)[C@H](OC(C)=O)[C@@]1(C)O[C@@H](/C=C/C=C/C=C/c1oc(=O)cc(OC)c1C)[C@@H]2O [Aurovertin, aurovertin B] | 10 | inhibited VEGF-induced migration of HUVECs | 50 | 2/4 |
| COc1cc(=O)oc(/C=C/C=C/C=C/C(C)=C/[C@@]2(C)O[C@H](C)[C@](C)(O)[C@H]2O)c1C [Citreoviridin, citreoviridin] | 10 | – | – | – |
| CC[C@H]1/C=C/C=C/C[C@@H](C)[C@H](O)[C@@](C)(O)C(=O)[C@@H](C)[C@H](O)[C@@H](C)C(=O)[C@@H](C)[C@H](O)[C@@H](C)/C=C/C(=O)O[C@@H]2[C@H](C)[C@H](CC1)O[C@@]1(O[C@@H](C[C@@H](C)O)[C@@H](C)CC1=O)[C@H]2C [Oligomycin B, oligomycin B] | 5 | – | – | – |
